According to ChEMBL document CHEMBL1649403, “CYP1A2-mediated biotransformation of cardioactive 2-thienylidene-3,4-methylenedioxybenzoylhydrazine (LASSBio-294) by rat liver microsomes and human recombinant CYP enzymes” (Eur J Med Chem, 2011):

How the values were obtained:
[1] = target: Cytochrome P450 3A5 (Homo sapiens, UniProt P20815); experiment: Activity of human recombinant CYP3A5 assessed as compound remaining; format: ADME; settings: recombinant enzyme
[2] = target: T1, Cytochrome P450 1A2 (Homo sapiens, UniProt P05177); experiment: Activity of human recombinant CYP1A2 assessed as compound remaining; format: ADME; settings: recombinant enzyme
T1 sequence (P05177 whole entry): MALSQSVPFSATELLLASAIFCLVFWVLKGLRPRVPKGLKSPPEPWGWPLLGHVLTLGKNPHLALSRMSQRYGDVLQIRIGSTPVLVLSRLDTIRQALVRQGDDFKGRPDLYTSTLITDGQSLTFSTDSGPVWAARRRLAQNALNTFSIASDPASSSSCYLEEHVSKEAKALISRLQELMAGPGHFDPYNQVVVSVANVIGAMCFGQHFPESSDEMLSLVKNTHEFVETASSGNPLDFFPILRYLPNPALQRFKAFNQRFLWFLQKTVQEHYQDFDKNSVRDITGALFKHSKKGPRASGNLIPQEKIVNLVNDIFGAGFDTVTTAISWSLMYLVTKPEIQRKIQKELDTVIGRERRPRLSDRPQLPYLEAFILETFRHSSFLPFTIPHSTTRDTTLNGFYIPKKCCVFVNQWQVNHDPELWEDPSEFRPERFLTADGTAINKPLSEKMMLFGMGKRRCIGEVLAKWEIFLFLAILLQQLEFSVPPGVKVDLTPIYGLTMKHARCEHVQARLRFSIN

[3] = target: T2, Cytochrome P450 2C8 (Homo sapiens, UniProt P10632); experiment: Activity of human recombinant CYP2C8 assessed as compound remaining; format: ADME; settings: recombinant enzyme
T2 sequence (P10632 whole entry): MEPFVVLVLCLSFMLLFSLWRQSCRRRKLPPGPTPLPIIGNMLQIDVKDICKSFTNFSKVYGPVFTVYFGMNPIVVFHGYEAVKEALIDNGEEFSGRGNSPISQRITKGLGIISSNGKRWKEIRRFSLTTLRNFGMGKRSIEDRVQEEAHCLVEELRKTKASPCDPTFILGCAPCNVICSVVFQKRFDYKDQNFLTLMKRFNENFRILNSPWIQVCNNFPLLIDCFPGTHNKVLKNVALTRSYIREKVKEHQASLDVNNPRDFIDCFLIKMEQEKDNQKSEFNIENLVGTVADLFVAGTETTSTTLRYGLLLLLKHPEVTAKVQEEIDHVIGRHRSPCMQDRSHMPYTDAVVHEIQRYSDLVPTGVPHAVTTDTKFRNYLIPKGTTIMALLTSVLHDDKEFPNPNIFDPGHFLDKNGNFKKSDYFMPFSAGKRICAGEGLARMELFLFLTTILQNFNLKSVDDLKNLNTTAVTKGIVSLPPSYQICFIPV

[4] = target: T3, Cytochrome P450 2B6 (Homo sapiens, UniProt P20813); experiment: Activity of human recombinant CYP2B6 assessed as compound remaining; format: ADME; settings: recombinant enzyme
T3 sequence (P20813 whole entry): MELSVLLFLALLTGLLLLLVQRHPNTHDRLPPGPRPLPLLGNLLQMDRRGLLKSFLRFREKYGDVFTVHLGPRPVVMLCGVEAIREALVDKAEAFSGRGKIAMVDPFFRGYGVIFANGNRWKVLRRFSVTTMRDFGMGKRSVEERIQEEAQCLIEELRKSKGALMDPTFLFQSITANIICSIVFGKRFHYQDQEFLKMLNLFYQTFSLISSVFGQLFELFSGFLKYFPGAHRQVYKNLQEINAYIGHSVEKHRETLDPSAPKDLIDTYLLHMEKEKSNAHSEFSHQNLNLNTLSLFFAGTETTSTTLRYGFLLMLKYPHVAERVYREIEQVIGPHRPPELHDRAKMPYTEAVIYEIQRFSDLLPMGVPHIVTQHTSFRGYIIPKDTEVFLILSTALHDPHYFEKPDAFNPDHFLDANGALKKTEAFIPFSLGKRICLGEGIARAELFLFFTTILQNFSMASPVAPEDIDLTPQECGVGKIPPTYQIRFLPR

[5] = target: Cytochrome P450 2C9 (Homo sapiens, UniProt P11712); experiment: Activity of human recombinant CYP2C9 assessed as compound remaining; format: ADME; settings: recombinant enzyme
Sequence of Cytochrome P450 2C9 (P11712 whole entry): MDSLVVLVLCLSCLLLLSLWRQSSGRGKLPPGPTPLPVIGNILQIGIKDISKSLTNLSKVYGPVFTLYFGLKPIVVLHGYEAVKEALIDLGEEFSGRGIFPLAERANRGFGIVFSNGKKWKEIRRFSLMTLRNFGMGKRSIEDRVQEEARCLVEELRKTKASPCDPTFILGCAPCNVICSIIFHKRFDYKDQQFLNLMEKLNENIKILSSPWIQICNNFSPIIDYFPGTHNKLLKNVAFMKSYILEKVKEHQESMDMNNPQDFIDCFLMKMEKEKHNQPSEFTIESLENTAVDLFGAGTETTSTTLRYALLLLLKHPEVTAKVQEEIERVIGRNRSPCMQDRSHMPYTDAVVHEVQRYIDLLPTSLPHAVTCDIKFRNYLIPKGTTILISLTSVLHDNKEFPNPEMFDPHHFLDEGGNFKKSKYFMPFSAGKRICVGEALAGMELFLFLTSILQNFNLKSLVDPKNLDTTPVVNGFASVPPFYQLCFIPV

[6] = target: Cytochrome P450 2D6 (Homo sapiens, UniProt P10635); experiment: Activity of human recombinant CYP2D6 assessed as compound remaining; format: ADME; settings: recombinant enzyme
Sequence of Cytochrome P450 2D6 (P10635 whole entry): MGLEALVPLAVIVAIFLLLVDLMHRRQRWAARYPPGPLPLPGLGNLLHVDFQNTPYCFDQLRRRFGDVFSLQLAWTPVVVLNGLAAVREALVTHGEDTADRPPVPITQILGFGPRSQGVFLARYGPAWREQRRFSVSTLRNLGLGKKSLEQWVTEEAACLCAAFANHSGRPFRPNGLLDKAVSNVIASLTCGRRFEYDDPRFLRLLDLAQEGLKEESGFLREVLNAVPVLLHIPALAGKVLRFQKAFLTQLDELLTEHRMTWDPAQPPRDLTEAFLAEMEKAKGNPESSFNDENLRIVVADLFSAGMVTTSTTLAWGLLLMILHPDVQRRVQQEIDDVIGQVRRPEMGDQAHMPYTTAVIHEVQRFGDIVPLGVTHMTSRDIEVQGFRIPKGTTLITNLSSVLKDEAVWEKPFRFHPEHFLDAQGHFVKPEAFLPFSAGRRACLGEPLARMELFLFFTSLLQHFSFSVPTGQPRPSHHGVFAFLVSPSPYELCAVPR

[7] = target: Cytochrome P450 3A4 (Homo sapiens, UniProt P08684); experiment: Activity of human recombinant CYP3A4 assessed as compound remaining; format: ADME; settings: recombinant enzyme
Sequence of Cytochrome P450 3A4 (P08684 whole entry): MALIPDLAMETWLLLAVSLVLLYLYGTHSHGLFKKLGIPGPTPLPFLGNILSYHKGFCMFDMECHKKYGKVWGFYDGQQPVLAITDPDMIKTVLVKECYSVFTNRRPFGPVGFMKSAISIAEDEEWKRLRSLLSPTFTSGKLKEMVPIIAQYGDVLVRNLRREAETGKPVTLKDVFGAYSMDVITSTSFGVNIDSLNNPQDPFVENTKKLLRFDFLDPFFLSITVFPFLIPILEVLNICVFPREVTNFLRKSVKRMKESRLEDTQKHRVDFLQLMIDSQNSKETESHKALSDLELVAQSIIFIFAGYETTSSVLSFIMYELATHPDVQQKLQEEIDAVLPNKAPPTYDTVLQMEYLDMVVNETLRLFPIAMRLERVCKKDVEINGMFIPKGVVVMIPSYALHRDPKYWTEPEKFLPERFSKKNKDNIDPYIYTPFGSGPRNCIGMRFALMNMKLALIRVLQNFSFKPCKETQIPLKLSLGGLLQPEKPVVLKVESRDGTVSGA

[8] = target: Cytochrome P450 2C19 (Homo sapiens, UniProt P33261); experiment: Activity of human recombinant CYP2C19 assessed as compound remaining; format: ADME; settings: recombinant enzyme
Sequence of Cytochrome P450 2C19 (P33261 whole entry): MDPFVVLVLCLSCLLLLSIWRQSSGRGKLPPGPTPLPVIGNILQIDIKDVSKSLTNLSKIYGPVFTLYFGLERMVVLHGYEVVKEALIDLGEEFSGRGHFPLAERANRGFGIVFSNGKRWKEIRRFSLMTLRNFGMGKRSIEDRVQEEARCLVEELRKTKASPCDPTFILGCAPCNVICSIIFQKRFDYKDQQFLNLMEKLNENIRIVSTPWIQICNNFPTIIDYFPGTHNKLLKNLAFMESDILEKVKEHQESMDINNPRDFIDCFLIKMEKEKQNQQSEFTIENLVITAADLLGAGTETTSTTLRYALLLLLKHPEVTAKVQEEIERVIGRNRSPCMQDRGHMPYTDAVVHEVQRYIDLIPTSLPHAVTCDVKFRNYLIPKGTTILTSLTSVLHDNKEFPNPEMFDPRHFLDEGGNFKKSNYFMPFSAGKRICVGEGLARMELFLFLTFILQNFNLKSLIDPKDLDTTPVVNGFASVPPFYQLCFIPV

[9] = tested on: Liver microsomes; experiment: Metabolic stability in rat liver microsomes in presence of CYP1A2 inhibitor furafylline; format: ADME, Microsome
[10] = tested on: Liver microsomes; experiment: Metabolic stability in rat liver microsomes in presence of non-selective cytochrome P450 inhibitor ketoconazole; format: ADME, Microsome
[11] = tested on: Liver microsomes; experiment: Metabolic stability in rat liver microsomes in presence of CYP2D6 inhibitor quinidine; format: ADME, Microsome
[12] = tested on: Liver microsomes; experiment: Metabolic stability in rat liver microsomes in presence of CYP2C9 inhibitor sulfaphenazole; format: ADME, Microsome

Sequence of Cytochrome P450 3A5 (P20815 whole entry): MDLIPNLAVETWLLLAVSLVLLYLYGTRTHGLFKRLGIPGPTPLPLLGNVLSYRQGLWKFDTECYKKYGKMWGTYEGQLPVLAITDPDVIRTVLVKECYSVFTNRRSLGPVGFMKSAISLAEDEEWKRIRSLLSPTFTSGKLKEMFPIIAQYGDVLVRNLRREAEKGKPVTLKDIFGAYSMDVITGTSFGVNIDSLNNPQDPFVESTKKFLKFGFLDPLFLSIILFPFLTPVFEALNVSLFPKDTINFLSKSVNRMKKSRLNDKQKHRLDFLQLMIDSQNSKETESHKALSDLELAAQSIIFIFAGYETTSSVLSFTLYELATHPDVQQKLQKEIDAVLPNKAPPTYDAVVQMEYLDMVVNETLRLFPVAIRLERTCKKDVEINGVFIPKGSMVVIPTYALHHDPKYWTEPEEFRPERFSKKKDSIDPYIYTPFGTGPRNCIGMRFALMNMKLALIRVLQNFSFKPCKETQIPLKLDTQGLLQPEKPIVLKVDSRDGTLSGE

SMILES: O=C(N/N=C/c1cccs1)c1ccc2c(c1)OCO2
- Activity [1]: 100%
- Activity [2]: 67%
- Activity [3]: 99%
- Activity [4]: 98%
- Activity [5]: 81%
- Activity [6]: 95%
- Activity [7]: 92%
- Activity [8]: 96%

SMILES: Cc1nc2c([nH]1)c(=O)n(C)c(=O)n2Cc1ccco1 [FURAFYLLINE]
- Stability [9]: 0.12 µM

SMILES: CC(=O)N1CCN(c2ccc(OCC3COC(Cn4ccnc4)(c4ccc(Cl)cc4Cl)O3)cc2)CC1 (configuration not stated) [KETOCONAZOLE]
- Stability [10]: 0.31 µM

SMILES: C=C[C@H]1C[N@@]2CC[C@H]1C[C@@H]2[C@@H](O)c1ccnc2ccc(OC)cc12 [QUINIDINE]
- Stability [11]: 0.91 µM

SMILES: Nc1ccc(S(=O)(=O)Nc2ccnn2-c2ccccc2)cc1 [SULFAPHENAZOLE]
- Stability [12]: 0.85 µM
